Data on 3 compounds can be found in patent US4522815A, “Anthracycline glycosides” (priority 1982, dated 1985).

Each structure is given as a SMILES string. In brackets after ≈: the same amount, converted by molar mass. Read-outs that look alike come from different tables or passages of the source.

The subject of data set [1] is ascitic P388 leukemia. Description: Antitumor activity against ascitic P388 leukemia in CDF-1 mice, treatment i.p. on day 1. In kind it is in vivo. Here is the method:
(§1) The primary screening […] was carried out in CDF-1 mice bearing ascitic P388 leukemia (10^6 cells/mouse). Both IIa and IIc were suspended in 10%. Tween 80 and injected intraperitoneally.
(§2) Results of the primary screening "in vivo" carried out in CDF-1 mice bearing P388 ascitic leukemia and treated i.p. the day after tumor transplantation, are reported in Table 5.
(§3) Antitumor activity against ascitic P388 leukekemia.
(§4) Treatment i.p. on day 1.
(§5) ^a median survival time; % over untreated controls
(§6) ^b long term survivors (≥ 60 days)
(§7) ^c evaluated on the basis of autoptic findings on dead mice
(§8) ^d data of two experiments (range)
(§9) ^e date of three experiments (range)
(§10) Antitumor activity of Ib and Id against ascitic P388
as §4

For data set [2], the system named is HeLa cells. Nature of the data set: Colony inhibition test against HeLa cells in vitro (cloning efficiency), treatment for 24 hrs. In kind it is cell-based. The settings on record: for activity at 0.0062 µg/mL: 6.2 ng/ml; for activity at 0.025 µg/mL: 25 ng/ml; for IC50: HeLa colony inhibition, read-out: ID50 (the source's name); for times less cytotoxic than DNR: vs DNR; for activity at 0.0015 µg/mL: 1.5 ng/ml; for activity at 0.1 µg/mL: 100 ng/ml.

The subject of data set [3] is Gross leukemia. The settings on record: already demonstrated; cited from earlier work.
Data set [4] relates to Gross leukemia. Description: Oral activity against i.v. transplanted Gross leukemia (i.v. comparators). In kind it is in vivo, C3H/Me mice. The settings on record: for T/C %, median survival time / Toxic deaths: Table 7, oral +1.
Description: (§11) Results of studies performed in C3H/Me mice carrying i.v. transplanted Gross leukemia and treated i.v. the day after tumor transplantation, are reported in Table 6. […] The compounds Ib and Id were further investigated for oral activity on Gross leukemic transplanted i.v., in comparison with DNR, DX given i.v. and 4-dm DNR given oral route.
Oral activity of Ib and Id against Gross leukemia
^a days after transplantation
as §8

For data set [5], the system named is P388 leukemia cells sensitive to DX. Nature of the data set: Cytotoxicity on doxorubicin-sensitive P388 leukemia cells in vitro, 48 hrs exposure. In kind it is cell-based, mice. The text has this:
P388 and P388/DX leukemia cells were harvested from mice ascitic fluid and adapted to grow in suspension "in vitro".

Data set [6] concerns P388 leukemia cells resistant to DX (P388/DX). Nature of the data set: Cytotoxicity on doxorubicin-resistant P388/DX leukemia cells in vitro, 48 hrs exposure. Type of data set: cell-based, mice. Here is the method:
Compounds Ib and Id were studied "in vitro" on HeLa and P388 leukemia cells sensitive (P388) and resistant (P388/DX) to DX and […].
Compound Ib was studied on P388/DX "in vitro".
P388 and P388/DX leukemia cells were harvested from mice ascitic fluid and adapted to grow in suspension "in vitro". Cytotoxicity tests were carried out exposing the cells to various drug concentrations for 48 hrs; at the end of the exposure period, cells were counted with a coulter cell counter, and the ID50 (dose which gives 50% reduction of the cell number in comparison with untreated controls) was calculated.
Effect on sensitive and doxorubicin-resistant P388
^a Dose giving 50% reduction of cell number in comparison with
^c P388 leukemia cells resistant to DX
^d Ratio between ID50 on P388/DX and ID50 on P388

Data set [7] deals with Gross leukemia. Nature of the data set: Antitumor activity against i.v. transplanted Gross leukemia in C3H/Me mice, treatment i.v. on day 1. Type of data set: in vivo. The settings on record: for T/C, median survival time; % over untreated controls / Toxic deaths: Table 6.
Description: as §11
Antitumor activity against i.v. Gross leukemia.
Treatment i.v. on day 1.

Data set [8] can be described thus: Antitumor activity against ascitic P388 leukemia in CDF-1 mice, treatment i.p. on day 1. In kind it is in vivo. The settings on record: mouse, in vivo, ip, CDF-1 mice; read-out: Maximal Tolerated Dose (Mx TD). Here is the method: as §1, §2, §3, §4, §5, §6, §7, §8, §9, §10, §4
The mark [9] stands for this setting: Homo sapiens, HeLa, 24 h, Table 3, 24 hrs, read-out: No of colonies, % of untreated controls.
[10] abbreviates: Homo sapiens, HeLa, Table 3, 24 hrs, read-out: No of colonies, % of untreated controls.
Where [11] appears, read: Homo sapiens, HeLa, Table 1, 24 hrs, read-out: No of colonies, % of untreated controls.

Take `CC(=O)[C@]1(O)Cc2c(O)c3c(c(O)c2[C@@H](O[C@H]2C[C@H](N)[C@H](O)[C@H](C)O2)C1)C(=O)c1ccccc1C3=O` [4-dm DNR, 4-demethoxy DNR, reference compound]: in data set [1] (Table 5, 0.75 mg/kg i.p. day 1), the “LTS, long term survivors (≥ 60 days)” value was 0/8; the “T/C, median survival time; % over untreated controls” value (“T/C, median survival time; %” for short) is 163%; the “Toxic deaths (autoptic findings on dead mice)” value is recorded as 0/8. Besides, in data set [2] (Homo sapiens, HeLa, 24 h, Table 3, 3.1 ng/ml, 24 hrs, read-out: No of colonies, % of untreated controls), the activity at 0.0031 µg/mL amounted to 84%. Also, in data set [2] (setting [9]), the activity at 0.0062 µg/mL came out at 53% and the activity at 0.025 µg/mL was determined as 0%. In addition, the activity at 0.0125 µg/mL in data set [2] (Homo sapiens, HeLa, 24 h, Table 3, 12.5 ng/ml, 24 hrs, read-out: No of colonies, % of untreated controls) worked out at 18%. In addition, in data set [2] (Homo sapiens, HeLa, 24 h, Table 3, 24 hrs), the IC50 is roughly 0.0063 µg/mL (≈ 0.0127 µM). In addition, the “activity by oral route” value in data set [3] was “active by oral route”. Moreover, in data set [4] (3 mg/kg), the “T/C %, median survival time” value is given as 150% and the Toxic deaths is 0/6. In addition, in data set [4] (3.6 mg/kg), the “T/C %, median survival time” value was found to be 150% and the Toxic deaths is 0/6. Also, in data set [4] (4.3 mg/kg), the “T/C %, median survival time” value came to 216% and the Toxic deaths is reported as 0/3.

As for `CC(=O)[C@]1(O)Cc2c(O)c3c(c(O)c2[C@@H](O[C@H]2C[C@H](O)[C@@H](O)[C@H](C)O2)C1)C(=O)c1ccccc1C3=O` [Compound Ib, 4-demethoxy-7-0-(2,6-dideoxy-α-L-arabino-hexopyranosyl)-daunomycinone], in data set [1] (Table 5, 1.25 mg/kg i.p. day 1), the “LTS, long term survivors (≥ 60 days)” value is listed as 0/8; the “T/C, median survival time; %” value turned out to be 140%; the “Toxic deaths (autoptic findings on dead mice)” value is given as 0/8. In addition, in data set [1] (Table 5, 2.5 mg/kg i.p. day 1), the “LTS, long term survivors (≥ 60 days)” value is recorded as 0/9; the “T/C, median survival time; %” value was 163%; the “Toxic deaths (autoptic findings on dead mice)” value is recorded as 3/9. Moreover, in data set [1] (Table 5, 5 mg/kg i.p. day 1), the “LTS, long term survivors (≥ 60 days)” value is 0/10; the “T/C, median survival time; %” value is recorded as 63%; the “Toxic deaths (autoptic findings on dead mice)” value was 10/10. Further, in data set [1] (ascitic P388, i.p. day 1), the “times less potent than 4-dm DNR” value is reported as “about 1.5 times” and the “times more potent than DNR” value turned out to be 2 times. For the same compound, the “antileukemia activity, comparison at the Mx TD” value in data set [1] (vs DNR and 4-dm DNR) is “less active than DNR and 4-dm DNR”. In addition, the IC50 in data set [5] (Mus musculus, P388, dose giving 50% reduction of cell number vs untreated controls, 48 hrs, read-out: ID50 P388) is 0.0012 µg/mL (≈ 0.00241 µM). The “cytotoxicity on P388 leukemia cells” value in data set [5] (vs DNR) was “about as cytotoxic as DNR”. Besides, the “activity on P388/DX leukemia cells” value in data set [6] (48 hrs) is listed as “very active”. In data set [6] (Mus musculus, P388/DX, dose giving 50% reduction of cell number vs untreated controls, 48 hrs, read-out: ID50 P388/DX), the IC50 is 0.03 µg/mL (≈ 0.0602 µM). The “R: Ratio between ID50 on P388/DX and ID50 on P388” value in data set [6] (Table 4, 2880 min) is reported as 25. Further, the “times less cytotoxic than 4-dm DNR” value in data set [2] (HeLa cells cloning efficiency, vs 4-dm DNR) was 6 times. The “times less cytotoxic than DNR” value in data set [2] (HeLa cells cloning efficiency) is listed as 3 times. Also, in data set [2] (setting [10]), the activity at 0.0015 µg/mL is 107%, the activity at 0.0062 µg/mL worked out at 87%, the activity at 0.025 µg/mL turned out to be 67% and the activity at 0.1 µg/mL came to 0%. Also, the IC50 in data set [2] (Homo sapiens, Table 3, 24 hrs) is roughly 0.035 µg/mL (≈ 0.0702 µM). Further, in data set [4] (2.9 mg/kg), the “T/C %, median survival time” value was 167% and the Toxic deaths is 0/10. Moreover, in data set [4] (4.4 mg/kg), the “T/C %, median survival time” value was 208% and the Toxic deaths is reported as 0/10. Further, in data set [4] (6.6 mg/kg), the “T/C %, median survival time” value amounted to 116% and the Toxic deaths is on record as 4/9. The “antitumor activity given orally at day 1” value in data set [4] (oral day 1, Gross leukemia, Id at the Mx TD vs DX i.v.) is listed as “good antitumor activity when given orally at day 1, comparable to that of 4-dm DNR”. In addition, in data set [7] (Gross leukemia, i.v. day 1), the “antitumor activity, comparison of the Mx TD” value is listed as “more active than DNR”; the “toxicity and potency vs parent compounds” value is “more toxic and more potent than the parent compounds”. Further, in data set [7] (2.9 mg/kg i.v. day 1), the “T/C, median survival time; %” value is 214% and the Toxic deaths is 0/7. Moreover, in data set [7] (4.4 mg/kg i.v. day 1), the “T/C, median survival time; %” value amounted to 100% and the Toxic deaths was 7/8.

On to `COc1cccc2c1C(=O)c1c(O)c3c(c(O)c1C2=O)C[C@@](O)(C(C)=O)C[C@@H]3O[C@H]1C=C[C@@H](O)[C@H](C)O1` [Compound IIa, 7-0-(2,3,6-trideoxy-α-L-erythro-hex-2-enopyranosyl)-daunomycinone], for which, in data set [8], the MTD worked out at 100 mg/kg. In data set [1] (Table 2, 75 mg/kg i.p. day 1), the “LTS, long term survivors (≥ 60 days)” value is listed as 0/5; the “T/C, median survival time; %” value was 120%; the “Toxic deaths (autoptic findings on dead mice)” value is 0/5. Moreover, in data set [1] (Table 2, 100 mg/kg i.p. day 1), the “LTS, long term survivors (≥ 60 days)” value is 0/10; the “T/C, median survival time; %” value is recorded as 90%; the “Toxic deaths (autoptic findings on dead mice)” value was 1/10. For the same compound, in data set [1] (ascitic P388, i.p.), the “toxicity and potency vs parent drugs DNR and DX” value was “less toxic and potent than the parent drugs DNR and DX”. Also, in data set [1] (i.p. day 1, IIa: two doses tested incl. Mx TD), the “antitumor activity on P388 ascitic leukemia” value is “inactive”. Besides, the “times less cytotoxic than DNR” value in data set [2] (HeLa cells cloning efficiency) is reported as “about 25 times”. Also, in data set [2] (setting [11]), the activity at 0.0015 µg/mL was determined as 120%, the activity at 0.0062 µg/mL was 127%, the activity at 0.025 µg/mL is 143% and the activity at 0.1 µg/mL turned out to be 136%. In data set [2] (Homo sapiens, HeLa, Table 1, 400 ng/ml, 24 hrs, read-out: No of colonies, % of untreated controls), the activity at 0.4 µg/mL was 146%. Further, in data set [2] (Homo sapiens, Table 1, 24 hrs), the IC50 is 0.4 µg/mL (≈ 0.784 µM).
